Measurements: ChEMBL document CHEMBL1201862, “PubChem BioAssay data set” (2004)
Active and inactive are the calls of the source.

Columns and labels:
Format in all cases: functional
Protein RecA = target: T1, Protein RecA (Mycobacterium tuberculosis, UniProt P9WHJ3); assay: Fluorescence Cell-Free Homogeneous Dose Retest to Identify Inhibitors of RecA-Intein Splicing Activity. [Related pubchem assays (depositor defined):AID2097, AID2223, AID489010, AID492950]
T1 sequence (P9WHJ3 whole entry): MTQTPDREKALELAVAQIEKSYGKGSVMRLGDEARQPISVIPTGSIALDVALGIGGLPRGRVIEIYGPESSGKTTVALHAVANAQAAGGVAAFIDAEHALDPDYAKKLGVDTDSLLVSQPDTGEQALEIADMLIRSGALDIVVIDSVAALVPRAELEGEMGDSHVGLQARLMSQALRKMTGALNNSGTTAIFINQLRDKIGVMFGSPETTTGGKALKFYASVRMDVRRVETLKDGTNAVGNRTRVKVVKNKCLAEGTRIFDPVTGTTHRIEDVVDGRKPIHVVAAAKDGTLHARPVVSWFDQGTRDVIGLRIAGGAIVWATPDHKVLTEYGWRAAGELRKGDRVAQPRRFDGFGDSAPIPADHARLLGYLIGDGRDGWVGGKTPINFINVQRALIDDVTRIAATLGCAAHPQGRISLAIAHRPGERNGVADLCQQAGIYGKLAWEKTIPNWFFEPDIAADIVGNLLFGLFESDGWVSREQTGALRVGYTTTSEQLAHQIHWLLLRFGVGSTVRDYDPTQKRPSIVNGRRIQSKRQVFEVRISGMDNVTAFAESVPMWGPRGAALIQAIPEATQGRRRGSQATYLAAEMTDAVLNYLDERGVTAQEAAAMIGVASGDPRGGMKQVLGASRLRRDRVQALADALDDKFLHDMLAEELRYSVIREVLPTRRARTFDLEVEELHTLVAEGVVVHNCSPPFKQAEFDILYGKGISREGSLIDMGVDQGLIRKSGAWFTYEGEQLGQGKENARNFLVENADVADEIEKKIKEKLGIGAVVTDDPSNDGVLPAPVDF

[1] = target: Leukocyte tyrosine kinase receptor (Homo sapiens, UniProt P29376); assay: Navigating the Kinome. Panel member name: LTK
[2] = target: Serine/threonine-protein kinase PAK 4 (Homo sapiens, UniProt O96013);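 also: value obtained within a kinome profiling panel in which PAK4 was one of the panel members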
[3] = target: Protein kinase C theta type (Homo sapiens, UniProt Q04759); assay: Navigating the Kinome. Panel member name: PRKCQ
[4] = target: Tyrosine-protein kinase ABL1 (Homo sapiens, UniProt P00519)
Aurora kinase A = target: T2, Aurora kinase A (Homo sapiens, UniProt O14965);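 also: value from the Navigating the Kinome kinase panel profiling, panel entry STK6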
T2 sequence (O14965 whole entry): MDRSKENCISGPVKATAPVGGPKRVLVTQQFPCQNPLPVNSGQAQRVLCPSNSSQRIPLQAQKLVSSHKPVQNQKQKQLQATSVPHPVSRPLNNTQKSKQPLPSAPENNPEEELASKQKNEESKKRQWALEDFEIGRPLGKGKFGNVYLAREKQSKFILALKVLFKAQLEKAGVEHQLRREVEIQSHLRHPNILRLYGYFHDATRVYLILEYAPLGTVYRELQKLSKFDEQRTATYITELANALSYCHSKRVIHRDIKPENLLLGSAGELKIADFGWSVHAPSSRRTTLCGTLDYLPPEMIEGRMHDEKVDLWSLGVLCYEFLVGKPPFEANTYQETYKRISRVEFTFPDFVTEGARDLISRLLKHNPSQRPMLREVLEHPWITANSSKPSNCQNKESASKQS

[5] = target: T3, Inhibitor of nuclear factor kappa-B kinase subunit epsilon (Homo sapiens, UniProt Q14164); assay: Navigating the Kinome. Panel member name: IKBKE
T3 sequence (Q14164 whole entry): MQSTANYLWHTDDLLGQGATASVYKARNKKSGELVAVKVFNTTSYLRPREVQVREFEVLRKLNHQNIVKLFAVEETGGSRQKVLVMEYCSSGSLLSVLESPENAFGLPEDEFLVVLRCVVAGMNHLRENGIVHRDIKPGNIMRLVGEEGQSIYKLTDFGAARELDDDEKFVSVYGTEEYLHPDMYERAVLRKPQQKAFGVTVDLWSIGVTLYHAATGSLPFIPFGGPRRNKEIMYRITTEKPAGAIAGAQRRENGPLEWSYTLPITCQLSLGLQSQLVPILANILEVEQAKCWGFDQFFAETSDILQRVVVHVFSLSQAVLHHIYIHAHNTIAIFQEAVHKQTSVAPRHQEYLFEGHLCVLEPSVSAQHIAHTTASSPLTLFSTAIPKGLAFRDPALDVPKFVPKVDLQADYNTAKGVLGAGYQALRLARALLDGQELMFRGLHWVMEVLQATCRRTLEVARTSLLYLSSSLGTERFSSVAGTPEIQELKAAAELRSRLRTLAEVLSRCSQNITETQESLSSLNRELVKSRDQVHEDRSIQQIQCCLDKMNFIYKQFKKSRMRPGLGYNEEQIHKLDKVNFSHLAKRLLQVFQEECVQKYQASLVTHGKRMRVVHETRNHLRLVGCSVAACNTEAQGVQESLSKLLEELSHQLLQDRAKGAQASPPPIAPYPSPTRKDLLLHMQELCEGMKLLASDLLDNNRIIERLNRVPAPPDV

[6] = target: Glycogen synthase kinase-3 alpha (Homo sapiens, UniProt P49840);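 also: GSK3A result taken from a broad kinome-wide kinase panel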
Focal adhesion kinase 1 = Focal adhesion kinase 1 (Homo sapiens, UniProt Q05397);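 also: measured as one member of a kinome panel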
[7] = target: Serine/threonine-protein kinase pim-1 (Homo sapiens, UniProt P11309)
[8] = target: Dual specificity tyrosine-phosphorylation-regulated kinase 1B (Homo sapiens, UniProt Q9Y463); assay: Navigating the Kinome. Panel member name: DYRK1B
[9] = target: Vascular endothelial growth factor receptor 1 (Homo sapiens, UniProt P17948);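 also: measured within a kinome-wide profiling panel, FLT1 as the panel member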
[10] = target: Cyclin-dependent kinase 7 (Homo sapiens, UniProt P50613);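 also: value comes from a kinome-wide kinase profiling panel in which CDK7 is one member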
[11] = target: Dual specificity mitogen-activated protein kinase kinase 1 (Homo sapiens, UniProt Q02750); assay: Navigating the Kinome. Panel member name: MAP2K1
[12] = target: Glycogen synthase kinase-3 beta (Homo sapiens, UniProt P49841);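 also: value comes from a broad kinome profiling panel, with GSK3B as the panel member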
[13] = target: Tyrosine-protein kinase JAK2 (Homo sapiens, UniProt O60674);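 also: JAK2 tested as one member of a kinase panel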
[14] = target: Calcium/calmodulin-dependent protein kinase type II subunit alpha (Homo sapiens, UniProt Q9UQM7); assay: Navigating the Kinome. Panel member name: CAMK2A
[15] = target: Tyrosine-protein kinase Lck (Homo sapiens, UniProt P06239);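 also: lck was assayed as one member of a kinase panel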

Sequence of Leukocyte tyrosine kinase receptor (P29376 whole entry): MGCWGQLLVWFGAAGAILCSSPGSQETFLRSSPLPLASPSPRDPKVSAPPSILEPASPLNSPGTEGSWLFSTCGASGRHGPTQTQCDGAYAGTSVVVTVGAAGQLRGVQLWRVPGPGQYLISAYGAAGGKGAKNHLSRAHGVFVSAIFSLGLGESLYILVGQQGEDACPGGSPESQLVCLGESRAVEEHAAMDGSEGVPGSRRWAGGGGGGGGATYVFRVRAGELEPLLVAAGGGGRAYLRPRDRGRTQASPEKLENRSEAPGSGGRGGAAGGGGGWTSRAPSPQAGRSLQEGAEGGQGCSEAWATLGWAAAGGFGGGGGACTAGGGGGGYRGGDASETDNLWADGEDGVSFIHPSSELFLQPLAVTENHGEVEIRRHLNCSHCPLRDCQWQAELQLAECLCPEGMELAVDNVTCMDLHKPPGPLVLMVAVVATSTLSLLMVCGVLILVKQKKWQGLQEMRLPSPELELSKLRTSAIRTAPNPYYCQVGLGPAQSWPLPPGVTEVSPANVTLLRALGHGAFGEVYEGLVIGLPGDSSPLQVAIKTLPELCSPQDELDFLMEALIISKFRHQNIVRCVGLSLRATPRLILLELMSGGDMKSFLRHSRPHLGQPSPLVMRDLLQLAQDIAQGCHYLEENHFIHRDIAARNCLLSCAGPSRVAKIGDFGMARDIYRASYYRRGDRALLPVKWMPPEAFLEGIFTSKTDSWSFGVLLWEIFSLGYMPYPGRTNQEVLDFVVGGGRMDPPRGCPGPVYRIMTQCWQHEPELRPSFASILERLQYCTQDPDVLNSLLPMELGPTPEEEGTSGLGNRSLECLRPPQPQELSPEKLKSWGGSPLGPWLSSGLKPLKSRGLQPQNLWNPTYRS
Sequence of Glycogen synthase kinase-3 alpha (P49840 whole entry): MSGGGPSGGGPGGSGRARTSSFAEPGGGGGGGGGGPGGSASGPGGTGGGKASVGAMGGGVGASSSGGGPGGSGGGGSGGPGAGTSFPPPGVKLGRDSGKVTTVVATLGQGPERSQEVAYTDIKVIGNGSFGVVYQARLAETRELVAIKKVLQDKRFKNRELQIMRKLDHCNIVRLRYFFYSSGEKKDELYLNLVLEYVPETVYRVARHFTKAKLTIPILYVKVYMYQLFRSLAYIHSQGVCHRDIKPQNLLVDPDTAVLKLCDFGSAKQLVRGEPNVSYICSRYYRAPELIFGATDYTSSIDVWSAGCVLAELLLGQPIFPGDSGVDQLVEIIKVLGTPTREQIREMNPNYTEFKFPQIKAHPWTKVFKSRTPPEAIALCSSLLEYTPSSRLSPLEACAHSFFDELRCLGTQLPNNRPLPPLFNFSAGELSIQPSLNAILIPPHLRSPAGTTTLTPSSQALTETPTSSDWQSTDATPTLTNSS
Sequence of Dual specificity mitogen-activated protein kinase kinase 1 (Q02750 whole entry): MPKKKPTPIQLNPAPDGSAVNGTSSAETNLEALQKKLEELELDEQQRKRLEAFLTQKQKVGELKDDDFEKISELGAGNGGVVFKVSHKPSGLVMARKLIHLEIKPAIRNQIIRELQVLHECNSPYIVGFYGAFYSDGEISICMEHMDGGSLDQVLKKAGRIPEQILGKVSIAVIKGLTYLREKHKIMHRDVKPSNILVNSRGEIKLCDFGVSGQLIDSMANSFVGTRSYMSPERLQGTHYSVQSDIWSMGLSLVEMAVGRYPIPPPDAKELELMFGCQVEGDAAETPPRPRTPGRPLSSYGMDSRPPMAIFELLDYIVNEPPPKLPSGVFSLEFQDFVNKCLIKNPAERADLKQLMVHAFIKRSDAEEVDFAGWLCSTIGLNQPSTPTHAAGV
Sequence of Vascular endothelial growth factor receptor 1 (P17948 whole entry): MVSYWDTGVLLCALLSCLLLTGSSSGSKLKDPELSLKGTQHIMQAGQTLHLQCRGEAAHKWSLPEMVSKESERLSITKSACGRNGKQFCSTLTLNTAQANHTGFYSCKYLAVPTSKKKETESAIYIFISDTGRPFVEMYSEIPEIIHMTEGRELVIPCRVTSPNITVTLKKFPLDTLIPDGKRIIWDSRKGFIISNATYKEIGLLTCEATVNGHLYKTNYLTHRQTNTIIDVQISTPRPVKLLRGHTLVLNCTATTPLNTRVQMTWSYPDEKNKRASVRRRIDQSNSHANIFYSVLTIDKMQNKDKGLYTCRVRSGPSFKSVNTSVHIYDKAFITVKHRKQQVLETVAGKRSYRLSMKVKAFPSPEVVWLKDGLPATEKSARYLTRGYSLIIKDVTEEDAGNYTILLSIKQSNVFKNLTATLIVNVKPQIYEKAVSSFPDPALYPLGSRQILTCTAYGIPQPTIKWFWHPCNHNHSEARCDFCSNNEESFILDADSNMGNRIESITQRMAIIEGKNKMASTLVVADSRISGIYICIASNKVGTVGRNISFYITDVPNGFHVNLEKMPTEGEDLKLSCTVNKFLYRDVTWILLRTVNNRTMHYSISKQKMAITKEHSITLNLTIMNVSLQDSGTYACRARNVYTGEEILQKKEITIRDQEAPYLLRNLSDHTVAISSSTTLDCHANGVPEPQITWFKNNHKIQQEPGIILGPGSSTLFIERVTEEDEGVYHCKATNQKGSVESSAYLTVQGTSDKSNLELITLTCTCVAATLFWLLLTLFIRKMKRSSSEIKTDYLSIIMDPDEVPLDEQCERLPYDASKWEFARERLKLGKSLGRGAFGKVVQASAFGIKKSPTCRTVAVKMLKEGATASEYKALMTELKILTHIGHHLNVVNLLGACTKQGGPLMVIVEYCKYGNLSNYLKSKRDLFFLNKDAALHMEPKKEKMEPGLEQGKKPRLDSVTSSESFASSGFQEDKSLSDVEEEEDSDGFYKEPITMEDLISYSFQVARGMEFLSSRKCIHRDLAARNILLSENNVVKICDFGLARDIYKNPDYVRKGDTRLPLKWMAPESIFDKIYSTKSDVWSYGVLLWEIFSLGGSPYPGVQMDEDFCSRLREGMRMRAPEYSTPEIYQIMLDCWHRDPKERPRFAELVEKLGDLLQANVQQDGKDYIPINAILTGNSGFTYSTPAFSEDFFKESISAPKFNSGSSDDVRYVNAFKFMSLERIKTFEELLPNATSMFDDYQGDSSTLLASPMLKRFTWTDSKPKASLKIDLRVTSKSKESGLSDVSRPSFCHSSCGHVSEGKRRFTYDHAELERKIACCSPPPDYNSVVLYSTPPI
Sequence of Focal adhesion kinase 1 (Q05397 whole entry): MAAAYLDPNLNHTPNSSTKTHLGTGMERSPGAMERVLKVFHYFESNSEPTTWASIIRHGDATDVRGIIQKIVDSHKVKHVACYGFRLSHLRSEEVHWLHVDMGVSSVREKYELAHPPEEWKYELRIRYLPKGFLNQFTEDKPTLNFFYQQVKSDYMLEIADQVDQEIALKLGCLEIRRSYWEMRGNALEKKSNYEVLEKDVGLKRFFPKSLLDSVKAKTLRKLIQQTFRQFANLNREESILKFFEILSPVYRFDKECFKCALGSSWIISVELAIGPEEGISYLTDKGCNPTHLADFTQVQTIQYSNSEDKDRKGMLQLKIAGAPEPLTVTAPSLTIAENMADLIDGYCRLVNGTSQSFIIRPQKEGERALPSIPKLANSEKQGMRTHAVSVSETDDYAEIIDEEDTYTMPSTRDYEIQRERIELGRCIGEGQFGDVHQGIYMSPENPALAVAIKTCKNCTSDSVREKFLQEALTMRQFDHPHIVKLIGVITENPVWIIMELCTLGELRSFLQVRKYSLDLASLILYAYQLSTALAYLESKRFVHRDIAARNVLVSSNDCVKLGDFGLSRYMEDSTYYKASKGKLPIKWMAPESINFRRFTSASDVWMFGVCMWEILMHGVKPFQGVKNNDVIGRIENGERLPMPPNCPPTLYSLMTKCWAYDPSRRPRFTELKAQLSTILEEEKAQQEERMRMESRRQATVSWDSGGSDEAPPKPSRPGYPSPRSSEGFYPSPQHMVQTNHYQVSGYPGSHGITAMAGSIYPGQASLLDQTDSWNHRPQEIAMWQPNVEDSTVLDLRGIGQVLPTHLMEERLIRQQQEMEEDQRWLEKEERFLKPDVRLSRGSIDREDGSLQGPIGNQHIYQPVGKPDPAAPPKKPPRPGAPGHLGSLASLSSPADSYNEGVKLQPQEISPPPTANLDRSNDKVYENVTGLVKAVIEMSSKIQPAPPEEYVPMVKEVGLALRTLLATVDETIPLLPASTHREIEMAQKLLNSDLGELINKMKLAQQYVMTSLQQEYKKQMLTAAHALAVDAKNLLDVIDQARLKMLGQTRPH
Sequence of Calcium/calmodulin-dependent protein kinase type II subunit alpha (Q9UQM7 whole entry): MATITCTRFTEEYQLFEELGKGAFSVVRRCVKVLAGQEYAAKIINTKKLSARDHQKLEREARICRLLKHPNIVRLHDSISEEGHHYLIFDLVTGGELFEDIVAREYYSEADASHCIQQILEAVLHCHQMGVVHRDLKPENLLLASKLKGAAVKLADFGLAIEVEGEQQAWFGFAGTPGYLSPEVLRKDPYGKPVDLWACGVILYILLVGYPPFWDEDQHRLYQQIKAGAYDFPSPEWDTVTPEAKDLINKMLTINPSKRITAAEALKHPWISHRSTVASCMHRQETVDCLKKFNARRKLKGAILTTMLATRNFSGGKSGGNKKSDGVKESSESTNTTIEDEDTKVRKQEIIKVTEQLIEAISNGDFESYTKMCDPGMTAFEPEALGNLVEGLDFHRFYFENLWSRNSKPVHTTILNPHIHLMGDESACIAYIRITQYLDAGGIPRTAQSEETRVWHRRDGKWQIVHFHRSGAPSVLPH
Sequence of Cyclin-dependent kinase 7 (P50613 whole entry): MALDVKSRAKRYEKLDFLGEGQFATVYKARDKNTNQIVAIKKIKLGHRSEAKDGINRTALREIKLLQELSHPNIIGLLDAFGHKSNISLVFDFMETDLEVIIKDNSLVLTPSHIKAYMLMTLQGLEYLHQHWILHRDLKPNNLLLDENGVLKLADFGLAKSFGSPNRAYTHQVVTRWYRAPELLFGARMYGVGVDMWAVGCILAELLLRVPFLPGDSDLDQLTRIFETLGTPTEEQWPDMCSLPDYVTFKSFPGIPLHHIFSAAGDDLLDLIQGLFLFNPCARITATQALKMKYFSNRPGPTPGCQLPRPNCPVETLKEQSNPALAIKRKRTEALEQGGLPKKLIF

O=C(Cc1ccccc1)NC1(O)C(=O)c2ccccc2C1=O
EC50 (Protein RecA): 8.67 µM (active)

O=c1[nH]c2cc(Br)cnc2[nH]1
Ki [1]: 7.94 µM (active) | Ki [2]: 39.8 µM (active) | Ki [3]: 31.6 µM (active) | Ki [4]: 15.8 µM (active) | Ki (Aurora kinase A): 10 µM (active) | Ki [5]: 39.8 µM (active) | Ki [6]: 63.1 µM (active) | Ki (Focal adhesion kinase 1): 31.6 µM (active) | Ki [7]: 25.1 µM (active) | Ki [8]: 10 µM (active) | Ki [9]: 10 µM (active) | Ki [10]: 12.6 µM (active) | Ki [11]: 50.1 µM (active) | Ki [12]: 63.1 µM (active) | Ki [13]: 79.4 µM (active)

O=C(Nc1cccc(C(F)(F)F)n1)Nc1ccnc2cc(OC(F)F)ccc12
Ki [1]: > 2.51 µM (inactive) | Ki [2]: > 5.01 µM (inactive) | Ki [14]: > 6.31 µM (inactive) | Ki [3]: > 2.51 µM (inactive) | Ki [4]: > 3.16 µM (inactive) | Ki (Aurora kinase A): > 1.58 µM (inactive) | Ki [5]: > 3.16 µM (inactive) | Ki [6]: 0.0158 µM (active) | Ki (Focal adhesion kinase 1): > 6.31 µM (inactive) | Ki [7]: > 6.31 µM (inactive) | Ki [8]: > 2.51 µM (inactive) | Ki [9]: > 3.98 µM (inactive) | Ki [10]: > 3.98 µM (inactive) | Ki [11]: > 3.16 µM (inactive) | Ki [15]: > 6.31 µM (inactive) | Ki [13]: > 2.51 µM (inactive)

O=C(Nc1cccc(C(F)(F)F)n1)Nc1ccnc2cc(Cl)ccc12
Ki [1]: > 2.51 µM (inactive) | Ki [2]: > 5.01 µM (inactive) | Ki [14]: > 7.94 µM (inactive) | Ki [3]: > 2.51 µM (inactive) | Ki [4]: 3.98 µM (active) | Ki (Aurora kinase A): > 1.58 µM (inactive) | Ki [5]: > 3.16 µM (inactive) | Ki [6]: 0.0158 µM (active) | Ki [7]: > 5.01 µM (inactive) | Ki [8]: > 2.51 µM (inactive) | Ki [9]: > 3.98 µM (inactive) | Ki [10]: > 3.98 µM (inactive) | Ki [11]: 3.16 µM (active) | Ki [12]: 0.00794 µM (active) | Ki [15]: > 6.31 µM (inactive) | Ki [13]: 2.51 µM (active)

CCC1CC(NS(=O)(=O)C2CC2)CC1c1ncc2cnc3[nH]ccc3n12 (stereo unspecified)
Ki [1]: 0.2 µM (active) | Ki [2]: 2.51 µM (active) | Ki [14]: 2.51 µM (active) | Ki [3]: 0.2 µM (active) | Ki (Aurora kinase A): 1.26 µM (active) | Ki [5]: > 3.16 µM (inactive) | Ki [6]: > 3.98 µM (inactive) | Ki (Focal adhesion kinase 1): > 6.31 µM (inactive) | Ki [7]: > 6.31 µM (inactive) | Ki [8]: > 2.51 µM (inactive) | Ki [9]: > 3.98 µM (inactive) | Ki [10]: > 3.98 µM (inactive) | Ki [11]: > 3.16 µM (inactive) | Ki [12]: > 3.98 µM (inactive) | Ki [15]: 3.98 µM (active) | Ki [13]: 0.000126 µM (active)

Cc1cc(C)c(S(=O)(=O)/N=C2\C=C(Nc3ccc(C(=O)O)cc3)C(=O)c3ccccc32)c(C)c1
EC50 (Protein RecA): 0.0696 µM (active)

COC(=O)c1nc(-c2ccc3c(n2)C(=O)C(=N)C(OC)=C3O)c(N)c(-c2ccc(OC)c(OC)c2O)c1C
EC50 (Protein RecA): 0.342 µM (active)
